Patent US7488592B2, “Human protein acyl transferases and methods of uses therefor” (Washington University, priority 2003, dated 2009)
Blank lines part the entries; values can stand above or below the compound they belong to.

Legend:
yeast Erf2p/Erf4p = molecular target: T1, yeast Erf2p/Erf4p (Saccharomyces cerevisiae, UniProt Q06551); test: Ras PAT assay: [3H]palmitate incorporation into GST-Ras(HV)CCaaX by partially purified Erf2p/Erf4p, with competitor or inhibitor; type: biochemical, S. cerevisiae; settings: 0.5 μM [3H]palmitoyl-CoA; for effectiveness as competitor of the radioactive Ras PAT reaction (in words): unlabeled acyl-CoA at concentrations similar to 8 μM, FIG. 17
T1 construct: made in house; host or cells: S. cerevisiae RJY543 (galactose-induced)
T1 sequence (Q06551 1-359): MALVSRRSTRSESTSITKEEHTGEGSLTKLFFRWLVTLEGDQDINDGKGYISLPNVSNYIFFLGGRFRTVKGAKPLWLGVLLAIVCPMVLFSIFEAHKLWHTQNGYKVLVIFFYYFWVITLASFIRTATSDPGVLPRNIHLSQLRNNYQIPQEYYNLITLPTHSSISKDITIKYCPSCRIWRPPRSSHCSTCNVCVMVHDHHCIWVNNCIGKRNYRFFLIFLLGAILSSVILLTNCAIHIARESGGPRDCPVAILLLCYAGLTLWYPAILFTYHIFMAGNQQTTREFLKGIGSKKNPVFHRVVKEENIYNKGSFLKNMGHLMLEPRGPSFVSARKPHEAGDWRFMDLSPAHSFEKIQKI
T1 sequence (P41912 1-237 partner): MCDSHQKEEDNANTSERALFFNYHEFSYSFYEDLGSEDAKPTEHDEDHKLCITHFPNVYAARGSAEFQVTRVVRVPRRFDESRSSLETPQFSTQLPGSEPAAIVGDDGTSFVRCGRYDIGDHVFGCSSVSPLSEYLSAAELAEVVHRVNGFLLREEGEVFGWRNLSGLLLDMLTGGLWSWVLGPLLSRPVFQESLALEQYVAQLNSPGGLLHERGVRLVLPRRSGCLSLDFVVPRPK
Protocol: FIG. 17—Concentration dependent inhibition of yeast PAT activity by acyl-CoAs. Partially purified yeast Erf2p/Erf4p was assayed for PAT activity in the presence of 0.5 μM [^3H]palmitoyl-CoA and the indicated concentrations of unlabeled acyl-CoA substrates as indicated: decanoyl-CoA (C10:0), lauroyl-CoA (C12:0), myristoyl-CoA (C14:0), palmitoyl-CoA (C16:0), palmitoleoyl-CoA (C16:1), stearoyl-CoA (C18:0), and oleoyl-CoA (C18:1). Radiolabeled palmitoylated GST-Ras(HV)CCaaX was excised from the gel and quantitated. Results are expressed as a percent of Ras PAT activity in the absence of competitor (100%).
FIG. 18—Inhibition of Erf2p/Erf4p-dependent PAT by 2-bromopalmitate. Partially purified Erf2p/Erf4p was assayed for palmitoyltransferase activity using GST-Ras(HV)CCaaX (1.33 μM) and 0.5 μM [^3H]palmitoyl-CoA as substrate. Radiolabeled palmitoylated GST-Ras(HV)CCaaX was excised from the gel and quantitated. Results are expressed as a percent of Ras PAT activity in the absence of competitor (100%).
Ras PAT Assays—Ras PAT activity was assayed by measuring the incorporation of tritiated palmitate. [^3H]palmitoyl-CoA substrate was synthesized from [^3H]palmitic acid (NEN) and Coenzyme A using acyl-CoA synthetase (Sigma) and purified as described (Taylor et al., 1990). The PAT assay (25 μl of final volume) was performed by adding 1.5 μg of GST-Ras(HV)CCaaX(2 μM) to GST-Erf4p/FLAG-Erf2p GSH beads in 1 mM DTT, 100 mM MES (pH 6.3). The reaction was started by the addition of 1 μl of [^3H]palmitoyl-CoA (0.5 μM), incubated for 15 min at 30° C., and terminated by the addition of 5 μl of a 5× solution of SDS gel loading buffer without DTT. Heat inactivation was performed by boiling (100° C., 15 min) the GSH beads containing GST-Erf4p/FLAG-Erf2p prior to the addition of substrates. The assays were analyzed by SDS-PAGE using Bis-Tris gels, pH 6.4 (Nu-PAGE®), and subjected to fluorography as described (Mitchell et al., 1994). Quantitation of Ras PAT activity was done by excising Ras protein bands from the gel, solubilizing them in Soluene S-350 (Packard), and counting in a scintillation counter.
The lipid substrate specificity of Ras PAT was investigated by adding increasing amounts of unlabeled acyl-CoA competitors to the radioactive Ras PAT reaction. […] Decanoyl (C10:0) was ineffective at similar concentrations. […] Both saturated and unsaturated fatty acyl-CoAs were effective inhibitors. Little difference was observed between C16:0 and C16:1, or C18:0 and C18:1. The lack of complete acyl-CoA substrate specificity of Ras PAT is consistent with the finding that thioester-linked fatty acids on protein are heterogeneous in vivo (Linder, 2001).
Inhibition of autopalmitoylation or substrate palmitoylation can come about by substrates or substrate analogs. […] The lipid substrate specificity of yeast Erf2p/Erf4p for Ras palmitoylation was investigated by adding increasing amounts of unlabeled acyl-CoA competitors to the radioactive Ras PAT reaction. […] Decanoyl (C10:0) was ineffective at similar concentrations. […] Both saturated and unsaturated fatty acyl-CoAs were effective inhibitors. Little difference was observed between C16:0 and C16:1, or C18:0 and C18:1. The lack of complete acyl-CoA substrate specificity of Ras PAT is consistent with the finding that thioester-linked fatty acids on protein are heterogeneous in vivo (Linder, 2001). […]

Erf2p/Erf4p complex = molecular target: T2, Erf2p/Erf4p complex (Saccharomyces cerevisiae, UniProt Q06551); test: Autopalmitoylation of Erf2p, microtiter plate assay with [3H]palmitoyl CoA; type: biochemical, yeast; settings: 2-bromopalmitate 16, 63 or 250 μM; 30 minutes at 25 °C; no substrate
T2 construct: FLAG (N); made in house
T2 sequence (Q06551 1-359): T1 sequence (Q06551 1-359)
T2 sequence (P41912 1-237 partner): T1 sequence (P41912 1-237 partner)
Protocol: FIG. 19—Inhibition of autopalmitoylation of Erf2p. Partially purified […]/GST-Erf4p (2.7 nM) was bound to the well of a GSH coated microtiter plate. The complex was incubated in reaction buffer (122 mM NaCl, 183 mM Tris HCl pH 7.8, 0.6 mM DTT and 0.035% Triton X-100) (registered trademark of Union Carbide Chemicals and Plastics Co., Inc. for a compound of formula C14H22O(C2H4O)n (CAS No. 9002-93-1); hereinafter referred to as “Triton X-100”))in the presence or absence of 2-bromopalmitate (16 .μ.M, 63 .μ.M or 250 .μ.M). The autopalmitoylation reaction was initiated by addition of 5 .μ.l of 3 .μ.M [^ 3H]palmitoyl CoA and the reaction was incubated for 30 minutes at 25 ° C. The wells were washed (3 × 200 .μ.l 20 mM phosphate pH 6 with 1% Triton X-100) and 3 × 200 .μ.l 25% ipa in water. Finally, wash with 2 × 200 .μ.l 20 mM phosphate pH 6 with 150 mM NaCl. The wells were counted in scintillation fluid.
The inventors tested whether 2-BP inhibits autopalmitoylation of yeast Erf2p.

PAT = settings: reported by Webb et al., 2000; cited from earlier work

Structure (SMILES): CCCCCCCCCCCCCCC(Br)C(=O)O (stereo not shown) [2-BP, 2-Bromopalmitate]
inhibition of Erf2/Erf4-dependent PAT activity using yeast Ras2 as a substrate (in words) (yeast Erf2p/Erf4p; increasing concentrations of 2-BP, GST-Ras(HV)CCaaX 1.33 μM): inhibits
inhibition of autopalmitoylation of Erf2p (in words) (Erf2p/Erf4p complex): inhibited in a dose-dependent manner
inhibition of PAT activity in vivo (in words) (PAT): inhibit PAT activity in vivo

Structure (SMILES): CCCCCCCCCCCCCC(=O)SCCNC(=O)CCNC(=O)[C@H](O)C(C)(C)COP(=O)(O)OP(=O)(O)OC[C@H]1O[C@@H](n2cnc3c(N)ncnc32)[C@H](O)[C@@H]1OP(=O)(O)O [myristoyl, myristoyl-CoA]
effectiveness as competitor of the radioactive Ras PAT reaction (in words) (yeast Erf2p/Erf4p): more effective

Structure (SMILES): CCCCCCCCCCCCCCCC(=O)SCCNC(=O)CCNC(=O)[C@H](O)C(C)(C)COP(=O)(O)OP(=O)(O)OC[C@H]1O[C@@H](n2cnc3c(N)ncnc32)[C@H](O)[C@@H]1OP(=O)(O)O [palmitoyl-CoA]
inhibition of Ras PAT activity by unlabeled acyl-CoA competitor (yeast Erf2p/Erf4p; 8 μM competitor, a 16-fold excess): 90%

Now from value to compound:

effectiveness as competitor of the radioactive Ras PAT reaction (in words) (yeast Erf2p/Erf4p): ineffective
Structure (SMILES): CCCCCCCCCC(=O)SCCNC(=O)CCNC(=O)[C@H](O)C(C)(C)COP(=O)(O)OP(=O)(O)OC[C@H]1O[C@@H](n2cnc3c(N)ncnc32)[C@H](O)[C@@H]1OP(=O)(O)O [Decanoyl, decanoyl-CoA]

effectiveness as competitor of the radioactive Ras PAT reaction (in words) (yeast Erf2p/Erf4p): more effective
Structure (SMILES): CCCCCCCCCCCC(=O)SCCNC(=O)CCNC(=O)[C@H](O)C(C)(C)COP(=O)(O)OP(=O)(O)OC[C@H]1O[C@@H](n2cnc3c(N)ncnc32)[C@H](O)[C@@H]1OP(=O)(O)O [Lauryl, lauroyl-CoA]
